Measurements reported in PubChem BioAssay AID330 (DTP/NCI, 2004).
Where “and” joins values, the source holds several entries; their conditions need not be identical. Equal entries are not always repeated. Inconclusive results and toxic doses are left out. The calls were made as follows: active = survival T/C of 150% or more; inactive = T/C below 125% in these data.

Test system: P388 leukemia ip, CD2F1 mice, survival T/C
Assay: NCI In Vivo Anticancer Drug Screen. Data for tumor model P388 Leukemia (intraperitoneal) in CD2F1 (CDF1) mice
Settings: endpoint: median survival time, higher = longer survival
In short: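 Mice carrying the transplanted tumor received test compound or vehicle. Survival was recorded in each group, and the value is the treated-group measurement divided by that of the vehicle-treated control group.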

[1] = dose: 50.0 mg/kg/injection, schedule: Q01DX009 (ip), vehicle: Klucel (hydroxypropylcellulose) (HPC)
[2] = dose: 100.0 mg/kg/injection, schedule: Q01DX009 (ip), vehicle: Klucel (hydroxypropylcellulose) (HPC)
[3] = dose: 200.0 mg/kg/injection, schedule: Q01DX009 (ip), vehicle: Klucel (hydroxypropylcellulose) (HPC)
[4] = dose: 50.0 mg/kg/injection, schedule: Q01DX005 (ip), vehicle: Klucel (hydroxypropylcellulose) (HPC)
[5] = dose: 200.0 mg/kg/injection, schedule: Q01DX005 (ip), vehicle: Klucel (hydroxypropylcellulose) (HPC)
[6] = dose: 100.0 mg/kg/injection, schedule: Q01DX005 (ip), vehicle: Klucel (hydroxypropylcellulose) (HPC)

Measured: T/C

C1=NCc2nnn(Cc3ccccc3)c2N1
inactive: [1] 102 % of control | [2] 98 % of control | [3] 108 % of control

CCN=C(NCC)Nc1ccc(NC(=O)Nc2ccc(NC(=O)Nc3ccc(NC(=NCC)NCC)cc3)cc2)cc1
inactive: dose: 6.25 mg/kg/injection, schedule: Q01DX005 (ip), vehicle: Klucel (hydroxypropylcellulose) (HPC) 107 % of control | dose: 12.5 mg/kg/injection, schedule: Q01DX005 (ip), vehicle: Klucel (hydroxypropylcellulose) (HPC) 117 % of control | dose: 25.0 mg/kg/injection, schedule: Q01DX005 (ip), vehicle: Klucel (hydroxypropylcellulose) (HPC) 121 % of control and 123 % of control | [4] 117 % of control | [5] 90 % of control

O=C(Nc1ccccc1)c1csc(-c2csc(CCNC(=O)C(F)(F)F)n2)n1
inactive: dose: 12.5 mg/kg/injection, schedule: Q01DX009 (ip), vehicle: distilled water + Tween-80 88 % of control | dose: 25.0 mg/kg/injection, schedule: Q01DX009 (ip), vehicle: distilled water + Tween-80 88 % of control | dose: 100.0 mg/kg/injection, schedule: Q01DX009 (ip), vehicle: distilled water + Tween-80 88 % of control | dose: 200.0 mg/kg/injection, schedule: Q01DX009 (ip), vehicle: distilled water + Tween-80 89 % of control

COC(=O)C1=C(C(=O)OC)P2(c3ccccc3)(c3ccccc3)N(C)C(=S)N2C1(c1ccccc1)c1ccccc1
inactive: [4] 103 % of control | [6] 105 % of control | [5] 90 % of control

C/C(=N\NC(=S)Nc1cccc(F)c1)c1ccccn1
inactive: dose: 50.0 mg/kg/injection, schedule: Q01DX005 (ip), vehicle: saline with Tween-80 109 % of control | dose: 100.0 mg/kg/injection, schedule: Q01DX005 (ip), vehicle: saline with Tween-80 112 % of control | dose: 200.0 mg/kg/injection, schedule: Q01DX005 (ip), vehicle: saline with Tween-80 119 % of control

CSc1nc(C(N)=O)c(N)c(=O)[nH]1
inactive: [1] 109 % of control | [2] 110 % of control | [3] 117 % of control

COC(=O)C(C)CSc1ccccc1 (configuration not stated)
inactive: dose: 60.0 mg/kg/injection, schedule: Q01DX005 (ip), vehicle: saline 99 % of control | dose: 120.0 mg/kg/injection, schedule: Q01DX005 (ip), vehicle: saline 107 % of control

N#CCCSC(=S)C1CCCCC1=N (configuration not stated)
inactive: dose: 50.0 mg/kg/injection, schedule: Q01DX009 (ip), vehicle: saline + alcohol 109 % of control | dose: 100.0 mg/kg/injection, schedule: Q01DX009 (ip), vehicle: saline + alcohol 111 % of control | dose: 200.0 mg/kg/injection, schedule: Q01DX009 (ip), vehicle: saline + alcohol 109 % of control

S=C(NCCl)NCc1ccccc1
inactive: [4] 105 % of control | [6] 100 % of control | [5] 105 % of control

CC1(C)CC(COC(=O)c2c3ccccc3c3ccc4cccc5ccc2c3c54)CC(C)(C)N1O
inactive: dose: 50.0 mg/kg/injection, schedule: Q01DX009 (ip), vehicle: saline with Tween-80 98 % of control | dose: 100.0 mg/kg/injection, schedule: Q01DX009 (ip), vehicle: saline with Tween-80 106 % of control | dose: 200.0 mg/kg/injection, schedule: Q01DX009 (ip), vehicle: saline with Tween-80 91 % of control
